Results on 13 compounds are retold here after PubChem BioAssay (NCI).

Test systems include SF-539 CNS; SW-620 colon; A549 NSCLC; SK-MEL-28 melanoma; RPMI-8226 leukemia; SF-295 CNS; UO-31 renal; SNB-75 CNS; SF-268 CNS; KM20L2 colon; DMS 273 small cell lung.
Assay in all cases: inhibition of tumour cell growth, NCI panel, 48 h

Where “and” joins values, the source holds several entries; their conditions need not be identical. Equal values may be shown once.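 Tested at 5 concentrations; 48 h exposure; 96-well plates; endpoints linearly interpolated, else capped at highest concentration. GI50 is the concentration that inhibits growth by half. At the TGI there is no net growth.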 Where a SMILES comes first, the peptide text is derived from it. Bridges are numbered along the chain shown (N, C = ends). [ ]: non-standard residue; d: D form. The star is where a group is joined. ξ: configuration not given here. X26 = O=C(/C=C/C=C/C=C/C=C/C=C/C(=O)*)NC1=C(O)CCC1=O; NMeA = CN[C@@H](C)C(=O)O; ξF = NC(Cc1ccccc1)C(=O)O; ξA = CC(N)C(=O)O

Take `CNc1ncnc2c1cnn2COCC(O)CO` (stereo not drawn): the TGI with SF-539 CNS, in the experiment on SW-620 colon, in the experiment on A549 NSCLC, in the experiment on SK-MEL-28 melanoma, with RPMI-8226 leukemia and with SF-295 CNS was above 100 µM in each case. Besides, the TGI with UO-31 renal, with SNB-75 CNS and in the experiment on SF-268 CNS was above 100 µM throughout.
Take `COC(C)(C)[C@@H](O)[C@H]1C[C@H](C)[C@@]2(CC[C@]3(C)[C@@H]2CC[C@@H]2[C@@]4(C)CC[C@@H](OC(C)=O)C(C)(C)[C@@H]4C[C@@H](OC4OC(COC(C)=O)C(O)C(O)C4O)[C@]23C)O1` (stereo partly drawn): the TGI with SF-539 CNS is 22.1 µM; in the experiment with SW-620 colon, 20.2 µM; in the experiment on A549 NSCLC, 15.3 µM; in the experiment with SK-MEL-28 melanoma, 20.4 µM; in the experiment with RPMI-8226 leukemia, 5.7 µM; in the experiment on SF-295 CNS, 16.5 µM. Further, the results for the TGI with UO-31 renal, in the experiment with SNB-75 CNS and with SF-268 CNS were 15.5 µM, 16.5 µM and 18.6 µM, respectively.
Turning to `O=C(Oc1cc(=O)c(OC(=O)c2ccccc2)co1)c1ccccc1`, the TGI in the experiment on SF-539 CNS, with SW-620 colon, in the experiment with A549 NSCLC, in the experiment with SK-MEL-28 melanoma, with RPMI-8226 leukemia and with SF-295 CNS was above 100 µM each time. In addition, the TGI with UO-31 renal, with SNB-75 CNS and with SF-268 CNS was above 100 µM each time.
In the case of `Cc1cn(-c2cc(C(=O)Nc3cccc(-n4ccc5c(NC(=O)c6ccccc6)nccc54)c3)cc(C(F)(F)F)c2)cn1`, the GI50 is 0.332 µM with SF-539 CNS; 0.39 µM in the experiment on SW-620 colon; 0.502 µM with A549 NSCLC; 0.546 µM with SK-MEL-28 melanoma; 0.426 µM in the experiment on RPMI-8226 leukemia; 0.306 µM in the experiment on SF-295 CNS. In addition, the GI50 is 1.1 µM in the experiment with UO-31 renal, 0.252 µM in the experiment on SNB-75 CNS and 0.514 µM in the experiment on SF-268 CNS. Moreover, the TGI with SF-539 CNS worked out at 1.51 µM; in the experiment on SW-620 colon, 1.78 µM; in the experiment with A549 NSCLC it was 5.34 µM; with SK-MEL-28 melanoma, 5.41 µM; in the experiment with RPMI-8226 leukemia it was 4.02 µM; in the experiment with SF-295 CNS, 1.44 µM. Also, the TGI with UO-31 renal turned out to be 14.9 µM; with SNB-75 CNS it was 3.27 µM; in the experiment on SF-268 CNS, 7.89 µM.
With `NCCCN1CCN(CCCNc2ccc3nnn4c5ccccc5c(=O)c2c34)CC1`, the TGI with SF-539 CNS is 36.2 µM; in the experiment on SW-620 colon, above 100 µM; with A549 NSCLC, above 100 µM; in the experiment on SK-MEL-28 melanoma, above 100 µM; with RPMI-8226 leukemia, above 100 µM; in the experiment with SF-295 CNS, 45.2 µM. In addition, the TGI turned out to be 90.7 µM with UO-31 renal, 48.3 µM in the experiment on SNB-75 CNS and 75 µM in the experiment with SF-268 CNS.
In the case of `CC(=O)O[C@H]1C(=O)[C@@]2(C)[C@H]([C@H](OC(=O)c3ccc(F)cc3)[C@]3(O)C[C@H](OC(=O)[C@H](O)[C@@H](NC(=O)c4ccccc4)c4ccccc4)C(C)=C1C3(C)C)[C@]1(OC(C)=O)CO[C@@H]1C[C@@H]2O`, the TGI in the experiment on SF-539 CNS is 0.0604 µM; with SW-620 colon, above 25 µM; with A549 NSCLC, above 25 µM; in the experiment with SK-MEL-28 melanoma it was above 25 µM; in the experiment on RPMI-8226 leukemia, 0.0195 µM; in the experiment on SF-295 CNS, above 6.59 µM. For the same compound, the TGI in the experiment with UO-31 renal was above 25 µM; in the experiment on SNB-75 CNS, 0.659 µM; in the experiment on SF-268 CNS it was above 25 µM.
In the case of `COC(=O)c1cc2c(cc1CC1Cc3cc4c(cc3C1)CCC4)CCC2`, the TGI in the experiment with SF-539 CNS was above 100 µM; in the experiment on SW-620 colon it was above 100 µM; with A549 NSCLC, above 100 µM; with SK-MEL-28 melanoma, 80.4 µM; with RPMI-8226 leukemia it was 61.4 µM; with SF-295 CNS, above 100 µM. The TGI in the experiment with UO-31 renal, in the experiment with SNB-75 CNS and with SF-268 CNS was above 100 µM throughout.
Turning to `CC1NC(=O)[C@H](C)N(C)C(=O)[C@@H]2CCCN2C(=O)[C@@H](NC(=O)C(Cc2ccccc2)NC(=O)/C=C/C=C/C=C/C=C/C=C/C(=O)NC2=C(O)CCC2=O)COC(=O)[C@@H]2CCCN2C1=O` (stereo partly drawn) (X26-[ξF]SP[NMeA][ξA]P; ester 2-C), the TGI in the experiment on SF-539 CNS, in the experiment on SW-620 colon, in the experiment with A549 NSCLC, with SK-MEL-28 melanoma, in the experiment with RPMI-8226 leukemia and in the experiment on SF-295 CNS was above 100 µM each time. Besides, the TGI in the experiment on UO-31 renal, with SNB-75 CNS and in the experiment with SF-268 CNS was above 100 µM throughout.
On to `COC(=O)CCc1cc(OC)c2c(c1)[C@H](C(=O)OC)[C@@H](c1ccc(O)c(OC)c1)O2`, for which the TGI in the experiment on SF-539 CNS was above 100 µM; in the experiment with SW-620 colon it was above 100 µM; in the experiment with A549 NSCLC it was above 100 µM; in the experiment with SK-MEL-28 melanoma it was above 100 µM; in the experiment with RPMI-8226 leukemia it was 55.5 µM; in the experiment with SF-295 CNS, above 100 µM. Further, the TGI in the experiment on UO-31 renal, in the experiment on SNB-75 CNS and with SF-268 CNS was above 100 µM in each case.
Consider `CCOP(=O)(OCC)C(C(=O)OC)C(=O)C(=O)Nc1ccc(Cl)cc1Cl` (stereo not drawn), for which the TGI in the experiment with SF-539 CNS, with SW-620 colon, in the experiment on A549 NSCLC, in the experiment with SK-MEL-28 melanoma, in the experiment on KM20L2 colon and with RPMI-8226 leukemia was above 100 µM in each case. Further, the TGI in the experiment with DMS 273 small cell lung, with UO-31 renal, in the experiment with SNB-75 CNS and in the experiment with SF-268 CNS was above 100 µM in each case.
Turning to `CC(C)(C)OC(=O)NCCC(N)=S`, the TGI in the experiment on SF-539 CNS, with SW-620 colon, in the experiment with A549 NSCLC, in the experiment on SK-MEL-28 melanoma, in the experiment with RPMI-8226 leukemia and with SF-295 CNS was above 100 µM each time. For the same compound, the TGI in the experiment on UO-31 renal, in the experiment with SNB-75 CNS and in the experiment with SF-268 CNS was above 100 µM in each case.
Consider `Clc1ccc(CSCCc2ccncc2)cc1Cl`, for which the TGI was 31.5 µM with SF-539 CNS; 46.6 µM with SW-620 colon; 96.2 µM with A549 NSCLC; 50.8 µM in the experiment on SK-MEL-28 melanoma; 40.3 µM in the experiment with RPMI-8226 leukemia; 41.8 µM in the experiment on SF-295 CNS. For the same compound, the TGI in the experiment on UO-31 renal stood at 56.9 µM; with SNB-75 CNS it was 77.6 µM; in the experiment with SF-268 CNS, 49.5 µM.
On to `COc1nc2ncc([C@@H](OC(C)=O)[C@@H](COC(C)=O)OC(C)=O)nc2c(=O)[nH]1`, for which the TGI with SF-539 CNS, in the experiment on SW-620 colon, in the experiment on A549 NSCLC, in the experiment with SK-MEL-28 melanoma, in the experiment on RPMI-8226 leukemia and in the experiment with SF-295 CNS was above 100 µM in each case. Further, the TGI with UO-31 renal, in the experiment on SNB-75 CNS and with SF-268 CNS was above 100 µM in each case. The GI50 with SNB-75 CNS is > 100 µM and 11.3 µM.
